# According to patent publication US20260083851A1 (AVILAR THERAPEUTICS, INC., priority 2022, published 2026):
# Target: T1, ASGP receptor (biotinylated ASGPR) (Homo sapiens, UniProt P07306)
# T1 construct: biotin (biotinylated)
# T1 sequence (P07306 1-291): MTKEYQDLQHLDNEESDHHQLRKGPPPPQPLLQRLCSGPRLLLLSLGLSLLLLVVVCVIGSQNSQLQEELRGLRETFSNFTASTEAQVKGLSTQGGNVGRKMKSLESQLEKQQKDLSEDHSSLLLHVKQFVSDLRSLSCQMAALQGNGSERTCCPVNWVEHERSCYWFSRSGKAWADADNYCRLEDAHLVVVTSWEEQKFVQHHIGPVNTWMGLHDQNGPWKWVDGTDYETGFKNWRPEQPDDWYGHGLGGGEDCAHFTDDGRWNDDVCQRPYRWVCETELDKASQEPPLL
# Type: binding
# Conditions: SPR, Biacore 8K, 25° C.; Table 1A; read-out: ASGPR KD
row,Structure (SMILES),Kd [µM]
1,"O=C(NC[C@H]1OC[C@H](Nc2cncc(C(F)(F)F)n2)[C@@H](O)[C@H]1O)c1ccnnc1 [A27, N-(((2R,3R,4R,5S)-3,4-dihydroxy-5-((6-(trifluoromethyl)pyrazin-2-yl)amino)tetrahydro-2H-pyran-2-yl)methyl)pyridazine-4-carboxamide]",< 10
2,"O=C(NC[C@H]1OC[C@H](Nc2cncc(C(F)(F)F)n2)[C@@H](O)[C@H]1O)c1ccc(-c2ccccc2)nc1 [A7, N-(((2R,3R,4R,5S)-3,4-dihydroxy-5-((6-(trifluoromethyl)pyrazin-2-yl)amino)tetrahydro-2H-pyran-2-yl)methyl)-6-phenylnicotinamide]",< 10
3,"O=C(NC[C@H]1OC[C@H](Nc2cncc(C(F)(F)F)n2)[C@@H](O)[C@H]1O)c1ccc2[nH]cnc2c1 [A6, N-(((2R,3R,4R,5S)-3,4-dihydroxy-5-((6-(trifluoromethyl)pyrazin-2-yl)amino)tetrahydro-2H-pyran-2-yl)methyl)-1H-benzo[d]imidazole-5-carboxamide]",< 10
4,"OC[C@H]1OC[C@H](Nc2ccccc2)[C@@H](O)[C@H]1O [A108, (2R,3R,4R,5S)-2-(hydroxymethyl)-5-(phenylamino)tetrahydro-2H-pyran-3,4-diol]",< 10
5,"O[C@@H]1[C@H](O)[C@@H](Nc2cncc(C(F)(F)F)n2)CO[C@@H]1CNc1ccnnc1 [A41, (2R,3R,4R,5S)-2-((pyridazin-4-ylamino)methyl)-5-((6-(trifluoromethyl)pyrazin-2-yl)amino)tetrahydro-2H-pyran-3,4-diol]",< 10
6,"O=C(NC[C@H]1OC[C@H](Nc2cncc(C(F)(F)F)n2)[C@@H](O)[C@H]1O)c1ncccn1 [A4, N-(((2R,3R,4R,5S)-3,4-dihydroxy-5-((6-(trifluoromethyl)pyrazin-2-yl)amino)tetrahydro-2H-pyran-2-yl)methyl)pyrimidine-2-carboxamide]",< 10
7,"O=C(NC[C@H]1OC[C@H](Nc2cncc(C(F)(F)F)n2)[C@@H](O)[C@H]1O)c1cnc[nH]1 [A22, N-(((2R,3R,4R,5S)-3,4-dihydroxy-5-((6-(trifluoromethyl)pyrazin-2-yl)amino)tetrahydro-2H-pyran-2-yl)methyl)-1H-imidazole-5-carboxamide]",< 10
8,O=C(NC[C@H]1OC[C@H](Nc2cncc(C(F)(F)F)n2)[C@@H](O)[C@H]1O)c1ncco1 [A50],< 10
9,O=C(O)c1ccc2c(c1)C(F)(F)c1cc(C(=O)NC[C@H]3OC[C@H](Nc4cncc(C(F)(F)F)n4)[C@@H](O)[C@H]3O)ccc1-2 [A52],< 10

# Next, values leading:
row,Kd [µM],Structure (SMILES)
1,< 10,"O=C(NC[C@H]1OC[C@H](Nc2cncc(C(F)(F)F)n2)[C@@H](O)[C@H]1O)c1ccc(-c2ccccc2)cn1 [A67, N-(((2R,3R,4R,5S)-3,4-dihydroxy-5-((6-(trifluoromethyl)pyrazin-2-yl)amino)tetrahydro-2H-pyran-2-yl)methyl)-5-phenylpicolinamide]"
2,< 10,"O=C(O)c1cnc(C(=O)NC[C@H]2OC[C@H](Nc3cncc(C(F)(F)F)n3)[C@@H](O)[C@H]2O)nc1 [A84, 2-((((2R,3R,4R,5S)-3,4-dihydroxy-5-((6-(trifluoromethyl)pyrazin-2-yl)amino)tetrahydro-2H-pyran-2-yl)methyl)carbamoyl)pyrimidine-5-carboxylic acid]"
3,< 10,"O=C(NC[C@H]1OC[C@H](Nc2cncc(C(F)(F)F)n2)[C@@H](O)[C@H]1O)c1cc(F)ccn1 [A39, N-(((2R,3R,4R,5S)-3,4-dihydroxy-5-((6-(trifluoromethyl)pyrazin-2-yl)amino)tetrahydro-2H-pyran-2-yl)methyl)-4-fluoropicolinamide]"
4,< 10,"OC[C@H]1OC[C@H](Nc2cncc(Br)n2)[C@@H](O)[C@H]1O [A138, (2R,3R,4R,5S)-5-((6-bromopyrazin-2-yl)amino)-2-(hydroxymethyl) tetrahydro-2H-pyran-3,4-diol]"
5,< 10,"O=C(O)CCCCCNC(=O)NC[C@H]1OC[C@H](Nc2cncc(C(F)(F)F)n2)[C@@H](O)[C@H]1O [A115, 6-(3-(((2R,3R,4R,5S)-3,4-dihydroxy-5-((6-(trifluoromethyl)pyrazin-2-yl)amino)tetrahydro-2H-pyran-2-yl)methyl)ureido)hexanoic acid]"
6,< 10,"O=C(O)COCCOCC(=O)NC[C@H]1OC[C@H](Nc2nccc(C(F)(F)F)n2)[C@@H](O)[C@H]1O [A106, 2-(2-(2-((((2R,3R,4R,5S)-3,4-dihydroxy-5-((4-(trifluoromethyl)pyrimidin-2-yl)amino)tetrahydro-2H-pyran-2-yl)methyl)amino)-2-oxoethoxy)ethoxy)acetic acid]"
7,< 10,"O=C(O)CNC[C@H]1OC[C@H](Nc2cncc(C(F)(F)F)n2)[C@@H](O)[C@H]1O [A26, (((2R,3R,4R,5S)-3,4-dihydroxy-5-((6-(trifluoromethyl)pyrazin-2-yl)amino)tetrahydro-2H-pyran-2-yl)methyl)glycine]"

# Same assay, conditions: SPR, Biacore 8K, 25° C.; Table 1B, numeric bound; read-out: ASGPR Kd
row,Kd [µM],Structure (SMILES)
1,> 30,"OC[C@H]1OC[C@H](NC2CCCCC2)[C@@H](O)[C@H]1O [A159, (2R,3R,4R,5S)-5-(cyclohexylamino)-2-(hydroxymethyl)tetrahydro-2H-pyran-3,4-diol]"

# Same assay, conditions: SPR, Biacore 8K, 25° C.; Table 1B; read-out: ASGPR Kd
row,Kd [µM],Structure (SMILES)
1,< 10,"O=C1CCCN1C[C@H]1OC[C@H](Nc2cncc(C(F)(F)F)n2)[C@@H](O)[C@H]1O [A157, 1-(((2R,3R,4R,5S)-3,4-dihydroxy-5-((6-(trifluoromethyl)pyrazin-2-yl)amino)tetrahydro-2H-pyran-2-yl)methyl)pyrrolidin-2-one]"
2,10 to 100,"COc1cncnc1N[C@H]1CO[C@H](CO)[C@H](O)[C@@H]1O [A156, (2R,3R,4R,5S)-2-(hydroxymethyl)-5-((5-methoxypyrimidin-4-yl)amino)tetrahydro-2H-pyran-3,4-diol]"

# Same assay, conditions: SPR, Biacore 8K, 25° C.; Table 1C, numeric bound; read-out: ASGPR KD
row,Kd [µM],Structure (SMILES)
1,> 30,"OC[C@H]1O[C@@H](c2ccccc2)[C@H](Oc2cccc(C(F)(F)F)n2)[C@@H](O)[C@H]1O [A208, (2R,3R,4S,5R,6S)-2-(hydroxymethyl)-6-phenyl-5-((6-(trifluoromethyl)pyridin-2-yl)oxy)tetrahydro-2H-pyran-3,4-diol]"

# Same assay, conditions: SPR, Biacore 8K, 25° C.; Table 1C; read-out: ASGPR KD
row,Structure (SMILES),Kd [µM]
1,CC[C@]1(COc2ccc(C(=O)O)nn2)O[C@H](O)[C@H](NC(=O)C(F)(F)F)[C@@H](O)[C@H]1O [A313],< 10
2,COC(=O)c1ccc(C#C[C@H]2O[C@H](C)[C@H](O)[C@H](O)[C@H]2Oc2cccc(C(F)(F)F)n2)nn1 [A321],< 10
3,O[C@@H]1[C@@H](Oc2cccc(C(F)(F)F)n2)COC(C(F)c2ccc(Cl)cc2)[C@@H]1O (stereo partly drawn) [A308],< 10
4,"O[C@@H]1[C@H](O)[C@@H](Oc2cccc(C(F)(F)F)n2)CO[C@@H]1COc1cccnn1 [A216, (2R,3R,4S,5S)-2-((pyridazin-3-yloxy)methyl)-5-((6-(trifluoromethyl)pyridin-2-yl)oxy)tetrahydro-2H-pyran-3,4-diol]",< 10
5,Nc1ccc(OC[C@H]2OC[C@H](Oc3cccc(C(F)(F)F)n3)[C@@H](O)[C@H]2O)nn1 [A323],< 10
6,CC(C)(C)OC(=O)N1CC2CN(C[C@H]3OC[C@H](Oc4cccc(C(F)(F)F)n4)[C@@H](O)[C@H]3O)CC21 (stereo partly drawn) [A261],< 10

# The next lines start with the values.
row,Kd [µM],Structure (SMILES)
1,< 10,O=C(c1ccc(Cl)cc1)[C@H]1OC[C@H](Oc2cccc(C(F)(F)F)n2)[C@@H](O)[C@H]1O [A299]
2,< 10,O[C@@H]1[C@H](O)[C@@H](Oc2cccc(C(F)(F)F)n2)CO[C@@H]1CN1CCc2ccccc2C1 [A254]
3,< 10,O=C1c2ncccc2CN1C[C@H]1OC[C@H](Oc2cccc(C(F)(F)F)n2)[C@@H](O)[C@H]1O [A263]
4,< 10,O[C@@H]1[C@@H](Nc2cccc(C(F)(F)F)n2)[C@H]2OC[C@](COc3cnccn3)(O2)[C@@H]1O [A296]
5,< 10,O=C(O)c1cnc(OC[C@H]2OC[C@H](Oc3cccc(C(F)(F)F)n3)[C@@H](O)[C@H]2O)cn1 [A244]
6,< 10,O=C(O)c1ccc(OC[C@@]23CO[C@@H](O2)[C@H](Nc2cncc(C(F)(F)F)n2)[C@@H](O)[C@H]3O)nn1 [A281]
7,< 10,O[C@@H]1[C@H](O)[C@@H](Oc2cccc(C(F)(F)F)n2)CO[C@@H]1COc1ccncc1 [A292]
8,< 10,O[C@@H]1[C@H](O)[C@@H](Nc2cccc(C(F)(F)F)n2)CO[C@@H]1CN1CCC1 [A279]

# Same assay, conditions: SPR, Biacore 8K, 25° C.; Table 1D, numeric bound; read-out: ASGPR KD
row,Kd [µM],Structure (SMILES)
1,> 30,CN1C[C@H](Nc2ccc(C(F)(F)F)cn2)[C@@H](O)[C@@H](O)C1 [A368]

# Same assay, conditions: SPR, Biacore 8K, 25° C.; Table 1D; read-out: ASGPR KD
row,Structure (SMILES),Kd [µM]
1,O[C@@H]1[C@@H](Oc2cccc(C(F)(F)F)n2)CNC[C@@H]1O [A388],< 10
2,O=C(c1ccccn1)N1C[C@H](Nc2cncc(C(F)(F)F)n2)[C@@H](O)[C@@H](O)C1 [A423],< 10

# Next, values leading:
row,Kd [µM],Structure (SMILES)
1,< 10,O=C(c1ccc(Cc2ccccc2)cc1)N1C[C@H](Nc2cncc(C(F)(F)F)n2)[C@@H](O)[C@@H](O)C1 [A364]
2,10 to 100,O[C@@H]1[C@@H](Nc2nccc(C(F)(F)F)n2)CNC[C@@H]1O [A370]
3,< 10,O=C(OCc1ccccc1)N1C[C@H](Nc2cncc(C(F)(F)F)n2)[C@@H](O)[C@@H](O)C1 [A361]

# Same assay, conditions: SPR, Biacore 8K, 25° C.; Table 1E; read-out: ASGPR KD
row,Kd [µM],Structure (SMILES)
1,< 10,C#Cc1ccc(OC[C@H]2O[C@H](C)[C@H](O)[C@H](O)[C@H]2Oc2cccc(C(F)(F)F)n2)nn1 [A442]
2,< 10,C[C@H]1O[C@H](c2nc(-c3ccccc3)no2)[C@H](Oc2cccc(C(F)(F)F)n2)[C@@H](O)[C@H]1O [A451]
3,< 10,C[C@H]1O[C@H](CO)[C@H](Oc2cccc(C(F)(F)F)n2)[C@@H](O)[C@H]1O [A438]
4,< 10,C[C@H]1O[C@H](COc2ccncn2)[C@H](Oc2cccc(C(F)(F)F)n2)[C@@H](O)[C@H]1O [A446]
5,< 10,C[C@H]1O[C@H](COc2cnc(C(=O)O)cn2)[C@H](Oc2cccc(C(F)(F)F)n2)[C@@H](O)[C@H]1O [A443]
